Conditions: humidity range 0-90% RH at 25° C., over a time period of 1200 minutes, FIG. 7
Experimental: FIG. 7: Izotherm diagram for tri-sodium risedronate dihydrate showing the sorption and desorption isotherm for tri-sodium risedronate dihydrate measured in a humidity range from 0-90% RH at 25° C. at DVS 1 (Surface Measurement System).

O.O.O=P([O-])([O-])C(O)(Cc1cccnc1)P(=O)([O-])O.[Na+].[Na+].[Na+] [tri-sodium risedronate dihydrate]
hygroscopicity (water absorption when humidity is raised): absorbs a minimum quantity of water
